{"source": "patent US11541130B2", "about": "“Systems and methods for nucleic acid expression in vivo” (DNARx, priority 2017, dated 2023)", "molecules": {"B1": {"name": "Neupogen: recombinant human G-CSF protein (protein, UniProt P09919 31-207, looked up)", "Granulocyte …": "TPLGPASSLPQSFLLKCLEQVRKIQGDGAALQEKLVSECATYKLCHPEELVLLGHSLGIPWAPLSSCPSQALQLAGCLSQLHSGLFLYQGLLQALEGISPELGPTLDTLQLDVADFATTIWQQMEELGMAPALQPTQGAMPAFASAFQRRAGGVLVASHLQSFLEVSYRVLRHLAQP", "modifications": "filgrastim", "notes": "recombinant human G-CSF protein"}}, "key": {"[1]": {"format": "in vivo", "details": "mice"}, "[2]": {"details": "in vivo; cited from earlier work"}}, "data": [{"molecule": "Rituximab: anti-CD20 monoclonal antibody expressed in mice from plasmid vector containing Rituximab cDNA", "values": [{"measurement": "Duration of serum anti-CD20 mAb (Rituximab) expression", "setting": "[1]; after a single sequential IV injection, 1050 nmol DOTAP 2.5% DP, 75 ug plasmid", "value": "over 275 days"}]}, {"molecule": "dexamethasone palmitate", "values": [{"measurement": "Serum anti-CD20 mAb (Rituximab) level, in words", "setting": "[1]; ELISA 24 hrs after sequential injection (Example 18: also over time)", "value": "further increases gene expression in vivo"}]}, {"molecule": "B1", "values": [{"measurement": "Time for serum HG-CSF levels to return to baseline after each daily dose", "setting": "[2]", "value": "approximately 14 hours"}]}]}
